Results on five compounds are retold here after US20030082226A1, “Non-steroidal antiinflammatory drug formulations for topical application to the skin” (priority 1997, published 2003).

The series is described as follows: Delivery of various NSAIDs through human skin, effect of propylene glycol, static cells (Example 8). To be noted: 10% enhancer; for Avg 24 Hour % Dose: ethanol:water 70:30, pH about 7, human skin; for effect of propylene glycol on total delivery (percent of original dose) at twenty four hours: 0 to 20% PG. The class given is in vitro ADME. An excerpt: All the tested formulations included ethanol and water at a 70:30 weight ratio and were neutralized with base to a pH of about 7.

For `O=C(O)Cc1ccccc1Nc1c(Cl)cccc1Cl` [Diclofenac], the “Avg 24 Hour % Dose” value was 18.7% (0% PG), 29.7% (5% PG), 35.3% (10% PG) and 45.2% (20% PG).

Consider `CC(C)Cc1ccc(C(C)C(=O)O)cc1` (stereo not shown) [Ibuprofen], for which the “Avg 24 Hour % Dose” value amounted to 61.7% (0% PG); 57.9% (5% PG); 56.5% (10% PG); 50.1% (15% PG); 28.3% (20% PG).

On to `CC(C(=O)O)c1cccc(C(=O)c2ccccc2)c1` (stereo not shown) [Ketoprofen], for which the “Avg 24 Hour % Dose” value is, setting by setting: (0% PG) 9.1%; (5% PG) 10.3%; (10% PG) 12.0%; (20% PG) 27.0%.

As to `O=C(c1ccccc1)c1ccc2n1CCC2C(=O)O` (stereo not shown) [Ketorolac], the “effect of propylene glycol on total delivery (percent of original dose) at twenty four hours” value is on record as “intermediate”. Also, the “Avg 24 Hour % Dose” value (0% PG) came to 10.8%. Further, the “Avg 24 Hour % Dose” value (5% PG) is given as 27.1%. Further, the “Avg 24 Hour % Dose” value (10% PG) was found to be 25.0%. Also, under “20% PG”, the “Avg 24 Hour % Dose” value turned out to be 19.3%.

For `CN1C(C(=O)Nc2ccccn2)=C(O)c2ccccc2S1(=O)=O` [Piroxicam], the “effect of propylene glycol on total delivery (percent of original dose) at twenty four hours” value is given as “substantially neutral”. Also, the “Avg 24 Hour % Dose” value (0% PG) is recorded as 66.3%. Moreover, the “Avg 24 Hour % Dose” value (10% PG) amounted to 55.1%. For the same compound, for the setting “20% PG”, the “Avg 24 Hour % Dose” value amounted to 63.5%.
